Source: patent US20050014152A1, “Drug transporter and use thereof” (priority 2001, published 2005)
Where a name gives a salt, the structure may show the parent alone.

How the values were obtained:
ABCA8 [1] = target: T1, ABCA8 (Homo sapiens, UniProt O94911); assay: uptake of various isotope-labeled compounds into oocytes; assay type: cell-based
T1 construct: expressed in transfected cells; host or cells: Xenopus oocytes (stage V) microinjected with capped cRNA
Protocol: (§1) The cultured oocytes (n=10 to 20) were mixed with 2 to 3 ml of a medium and an isotope-labeled compound, and the mixture was then placed in a small incubator. Small amounts of the cells were serially sampled. Each oocyte was washed with a fresh MBS 3 times, and it was then dissolved in a 10% SDS solution at room temperature for 30 minutes. As such an isotope-labeled compound, ^14C-estradiol-β-glucuronide that is a model probe for MRP (multidrug resistance associated protein), a member of an ABC transporter family, was used. Subsequently, a scintillation cocktail (ACS2, manufactured by Amersham) was added thereto, and then, a radioactivity taken into the oocyte was measured with a liquid scintillation counter (LSC-3500, manufactured by Aloka).
Subsequently, the uptake of various isotope-labeled compounds into cells was measured. Measurement was carried out in the same manner as in Example 1 with the exception that the following compounds were used. • LTC4 (leukotriene C4): a substrate for MRP (an additive amount: 20 μM) • Taurocholic acid: a substrate for OAT (an additive amount: 100 μM) • TEA (tetraethylammonium): a substrate for OCT (an additive amount: 10 nM) • Digoxin: a substrate for MDR (an additive amount: 100 nM) • Doxorubicin: a substrate for MDR (an additive amount: 100 μg/ml) • PAH (para-aminohippuric acid): a substrate for MRP and OAT (an additive amount: 1 mM)

ABCA8 [2] = target: T1, ABCA8; assay: inhibition test of the uptake of 14C-estradiol-β-glucuronide into oocytes by various compounds; assay type: cell-based; details: for uptake of 14C-estradiol-β-glucuronide decreased to: inhibitor additive amount 10 μM
Protocol: An inhibition test was carried out on the protein encoded by a DNA comprising the nucleotide sequence represented by SEQ ID NO: 2. In the test, in the above described determination of the uptake of ^14C-estradiol-β-glucuronide, various types of compounds were previously added to a reaction medium, so as to examine whether or not the uptake of ^14C-estradiol-β-glucuronide was inhibited by the compounds.

ABCA8 [3] = target: T1, ABCA8; assay: ATP dependency of the uptake of 14C-estradiol-β-glucuronide into oocytes; assay type: cell-based; details: ATP added, up to 5 mM
Protocol: A protein encoded by a DNA comprising the nucleotide sequence represented by SEQ ID NO: 2has an ATP-binding cassette. Thus, a test was made to see ATP dependency of the uptake of ^14C-estradiol-β-glucuronide. In the test, ATP was added in the above determination of the uptake of ^14C-estradiol-[…], and the same operation was then carried out to determine the uptake of ^14C-estradiol-β-glucuronide.

ABCA8 [4] = target: T1, ABCA8; assay: uptake of 14C-estradiol-β-glucuronide into Xenopus oocytes injected with cRNA of the drug transporter; assay type: cell-based
Protocol: A mature female Xenopus purchased from Hamamatsu Animal was bred under normal conditions. Thereafter, stage V oocytes were selected therefrom, and the cells were incubated in a modified Barth's solution (MBS) containing 88 mM NaCl, 1 mM KCl, 2.4 mM NaHCO3, 15 mM Tris-Cl, 0.3 mM CaNO3, 0.82 mM MgSO4, 0.41 mM CaCl2, 10 μg/ml penicillin and 10 μg/ml streptomycin. Thereafter, cRNA was prepared by a known method using a DNA having the nucleotide sequence represented by SEQ ID NO: 1, and an aqueous solution containing the obtained cRNA was injected into the mature Xenopus oocytes by microinjection. For such microinjection, cRNA whose 5′-terminus was capped or 50 nl of water was injected into the oocytes in vitro, using an automatic injector (IM200J, Narishige, Japan). The thus injected oocytes were cultured at 17° C. for 3 days in MBS, while exchanging the medium with a new one every day. 3 days after the culture, the oocytes expressed a drug transporter.
The used cRNA was obtained by […] of cDNA from Kazusa DNA Research Institute, which has been cloned as one of full-length cDNAs obtained from human brain and has been deposited with NCBI (National Center for Biotechnology Information, USA) under accession No. AB020629.
as §1
In this case, the concentration of ^14C-estradiol-β-glucuronide in the medium was 37 nM. […]

ABCA8 [5] = target: T1, ABCA8; assay: uptake of 3H-indoxyl sulfate into oocytes and its inhibition by probenecid; assay type: cell-based
Protocol: as §1
(§2) The same procedure was carried out as in Example 1 with the exception that ^3H-labeled indoxyl sulfate, one of the urinary toxins, was isotope-labeled with ^3H was used as a compound in a concentration of 2 μM. At the same time, a system to which probenecid was added in a concentration of 1 mM, and a system to which water was added instead of cRNA, were also subjected to the same test.

[6] = substrate: O=S(=O)(O)Oc1c[nH]c2ccccc12; assay: as above; assay type: cell-based, human; details: other: cRNA-injected oocytes
Protocol: as §1, §2

CC[N+](CC)(CC)CC [TEA, tetraethylammonium]
uptake of isotope-labeled compound into oocytes (ABCA8 [1]; additive amount 10 nM): does not have a function to transport

CCCCC/C=C\C\C=C/C=C/C=C/[C@@H](SC[C@H](NC(=O)CC[C@H](N)C(=O)O)C(=O)NCC(=O)O)[C@@H](O)CCCC(=O)O [LTC-4, leukotriene C4]
uptake of isotope-labeled compound into oocytes (ABCA8 [1]; additive amount 20 μM): taken into oocytes

C[C@@H]1Cc2c(Cl)cc(C(=O)N[C@@H](Cc3ccccc3)C(=O)O)c(O)c2C(=O)O1 [ochratoxin A, Ochratoxin A]
inhibitory effect on uptake of 14C-estradiol-β-glucuronide (ABCA8 [2]; additive amount 50 μM): inhibitory effect

^14C-estradiol-β-glucuronide
influence of ATP concentration on uptake into the cells (ABCA8 [3]): increased with the increase of ATP concentration
intake of 14C-estradiol-β-glucuronide into the cells (ABCA8 [4]; 37 nM in the medium, about 60 minutes): 138±5.5 fmol/hr/egg
Km (ABCA8 [4]; Michaelis-Menten): 30.4 µM
Vmax of uptake (ABCA8 [4]; Michaelis-Menten): 8.37 pmol/hr/egg

C[C@H](CCC(=O)NCCS(=O)(=O)O)[C@H]1CC[C@H]2[C@@H]3[C@H](O)C[C@@H]4C[C@H](O)CC[C@]4(C)[C@H]3C[C@H](O)[C@]12C [taurocholic acid, Taurocholic acid]
uptake of isotope-labeled compound into oocytes (ABCA8 [1]; additive amount 100 μM): taken into oocytes

C[C@H]1O[C@@H](O[C@H]2[C@@H](O)C[C@H](O[C@H]3[C@@H](O)C[C@H](O[C@H]4CC[C@@]5(C)[C@H](CC[C@@H]6[C@@H]5C[C@@H](O)[C@]5(C)[C@@H](C7=CC(=O)OC7)CC[C@]65O)C4)O[C@@H]3C)O[C@@H]2C)C[C@H](O)[C@@H]1O [digoxin, Digoxin]
uptake of isotope-labeled compound into oocytes (ABCA8 [1]; additive amount 100 nM): excreted therefrom (or its original uptake was inhibited)
inhibitory effect on uptake of 14C-estradiol-β-glucuronide (ABCA8 [2]; additive amount 0.25 mM): small extent of inhibitory effect

CN(C)C(=O)CCSC(SCCC(=O)O)c1cccc(/C=C/c2ccc3ccc(Cl)cc3n2)c1 (centres unmarked) [MK-571]
uptake of 14C-estradiol-β-glucuronide decreased to (ABCA8 [2]): approximately 30%

CN/C(=N/CCSCc1nc[nH]c1C)NC#N [cimetidine, Cimetidine]
inhibitory effect on uptake of 14C-estradiol-β-glucuronide (ABCA8 [2]; additive amount 1 mM): no inhibitory effect

CCCN(CCC)S(=O)(=O)c1ccc(C(=O)O)cc1 [probenecid, Probenecid]
effect on uptake of 3H-indoxyl sulfate into the cells (ABCA8 [5]; probenecid 1 mM, 3H-indoxyl sulfate 2 μM): decreased
inhibitory effect on uptake of 14C-estradiol-β-glucuronide (ABCA8 [2]; additive amount 1 mM): small extent of inhibitory effect

O=S(=O)(O)Oc1c[nH]c2ccccc12 [^3H-indoxyl sulfate, indoxyl sulfate]
Vmax of uptake (ABCA8 [5]; cRNA-injected oocytes): 5.5 pmol/hr/egg
uptake of 3H-indoxyl sulfate into oocytes, time course (ABCA8 [5]; cRNA-injected oocytes, 2 μM): linearly increased with time

Nc1ccc(C(=O)NCC(=O)O)cc1 [PAH, para-aminohippuric acid]
uptake of isotope-labeled compound into oocytes (ABCA8 [1]; additive amount 1 mM): taken into oocytes

COc1cccc2c1C(=O)c1c(O)c3c(c(O)c1C2=O)C[C@@](O)(C(=O)CO)C[C@@H]3O[C@H]1C[C@H](N)[C@H](O)[C@H](C)O1 [doxorubicin, Doxorubicin]
uptake of isotope-labeled compound into oocytes (ABCA8 [1]; additive amount 100 μg/ml): does not have a function to transport

O=C(C(c1ccccc1)c1ccccc1)N1CCN(CC(O)COc2cccc3ncccc23)CC1 (centres unmarked) [MS-209]
uptake of 14C-estradiol-β-glucuronide decreased to (ABCA8 [2]): approximately 30%

B1: ABCA8 (Homo sapiens) (protein)
chain: MRKRKISVCQQTWALLCKNFLKKWRMKRESLMEWLNSLLLLLCLYIYPHSHQVNDFSSLLTMDLGRVDTFNESRFSVVYTPVTNTTQQIMNKVASTPFLAGKEVLGLPDEESIKEFTANYPEEIVRVTFTNTYSYHLKFLLGHGMPAKKEHKDHTAHCYETNEDVYCEVSVFWKEGFVALQAAINAAIIEITTNHSVMEELMSVTGKNMKMHSFIGQSGVITDLYLFSCIISFSSFIYYASVNVTRERKRMKALMTMMGLRDSAFWLSWGLLYAGFIFIMALFLALVIRSTQFIILSGFMVVFSLFLLYGLSLVALAFLMSILVKKSFLTGLVVFLLTVFWGCLGFTSLYRHLPASLEWILSLLSPFAFMLGMAQLLHLDYDLNSNAFPHPSDGSNLIVATNFMLAFDTCLYLALAIYFEKILPNEYGHRRPPLFFLKSSFWSQTQKTDHVALEDEMDADPSFHDSFEQAPPEFQGKEAIRIRNVTKEYKGKPDKIEALKDLVFDIYEGQITAILGHSGAGKSTLLNILSGLSVPTKGSVTIYNNKLSEMADLENLSKLTGVCPQSNVQFDFLTVRENLRLFAKIKGILPQEVDKEIFLLDEPTAGLDPFSRHQVWNLLKERKTDRVILFSTQFMDEADILADRKVFLSQGKLKCAGSSLFLKKKWGIGYHLSLQLNEICVEENITSLVKQHIPDAKLSAKSEGKLIYTLPLERTNKFPELYKDLDSYPDLGIENYGVSMTTLNEVFLKLEGKSTINESDIAILGEVQAEKADDTERLVEMEQVLSSLNKMRKTIGGVALWRQQICAIARVRLLKLKHERKALLALLLILMAGFCPLLVEYTMVKIYQNSYTWELSPHLYFLAPGQQPHDPLTQLLIINKTGASIDDFIQSVEHQNIALEVDAFGTRNGTDDPSYNGAITVCCNEKNYSFSLACNAKRLNCFPVLMDIVSNGLLGMVKPSVHIRTERSTFLENGQDNPIGFLAYIMFWLVLTSSCPPYIAMSSIDDYKNRARSQLRISGLSPSAYWFGQALVDVSLYFLVFVFIYLMSYISNFEDMLLTIIHIIQIPCAVGYSFSLIFMTYVISFIFRKGRKNSGIWSFCFYVVTVFSVAGFAFSIFESDIPFIFTFLIPPATMIGCLFLSSHLLFSSLFSEERMDVQPFLVFLIPFLHFIIFLFTLRCLEWKFGKKSMRKDPFFRISPRSSDVCQNPEEPEGEDEDVQMERVRTANALNSTNFDEKPVIIASCLRKEYAGKRKGCFSKRKNKIATRNVSFCVRKGEVLGLLGHNGAGKSTSIKVITGDTKPTAGQVLLKGSGGGDALEFLGYCPQENALWPNLTVRQHLEVYAAVKGLRKGDAEVAITRLVDALKLQDQLKSPVKTLSEGIKRKLCFVLSILGNPSVVLLDEPSTGMDPEGQQQMWQAIRATFRNTERGALLTTHYMAEAEAVCDRVAIMVSGRLRCIGSIQHLKSKFGKDYLLEMKVKNLAQVEPLHAEILRLFPQAARQERYSSLMVYKLPVEDVQPLAQAFFKLEKVKQSFDLEEYSLSQSTLEQVFLELSKEQELGDFEEDFDPSVKWKLLPQEEP
notes: expressed in transfected cells; host or cells: Xenopus oocytes (stage V) microinjected with capped cRNA
Km [6]: 25.5 µM
